Assay results as given in paper PMC10938783, “A novel pan-PI3K inhibitor KTC1101 synergizes with anti-PD-1 therapy by targeting tumor suppression and immune activation” (Molecular Cancer, 2024).

System: B16 cells gene expression
Assay: RNA-Seq (DEGs, GSEA, heatmaps) of B16 cells
Details: B16 cells

**Q.** With `COc1cc(N)cc2c1nc(C(F)F)n2-c1nc(N2CCCOCC2)nc(N2CCOCC2)n1` [KTC1101, 2-(difluoromethyl)-4-methoxy-1-(4-morpholino-6-(1,4-oxazepan-4-yl)-1,3,5-triazin-2-yl)-1H-benzo[d]imidazol-6-amine] as the molecule, how does the “enrichmentScore, mmu04211 Longevity regulating pathway” value (KTC1101 0.2μM, GSEA KEGG) read?
**A.** 0.2589

**Q.** What about the “enrichmentScore, mmu04213 Longevity regulating pathway - multiple species” value (KTC1101 0.2μM, GSEA KEGG) of the same molecule?
**A.** 0.2778

**Q.** And the “enrichmentScore, mmu04215 Apoptosis - multiple species” value (KTC1101 0.2μM, GSEA KEGG)?
**A.** 0.3327

**Q.** What about the “enrichmentScore, mmu04216 Ferroptosis” value (KTC1101 0.2μM, GSEA KEGG) of the same molecule?
**A.** -0.2787

**Q.** What about the “enrichmentScore, mmu04217 Necroptosis” value (KTC1101 0.2μM, GSEA KEGG) of the same molecule?
**A.** -0.2455

**Q.** And the “enrichmentScore, mmu04270 Vascular smooth muscle contraction” value (KTC1101 0.2μM, GSEA KEGG)?
**A.** 0.2845

**Q.** What about the “enrichmentScore, mmu04360 Axon guidance” value (KTC1101 0.2μM, GSEA KEGG) of the same molecule?
**A.** 0.2929

**Q.** And the “enrichmentScore, mmu04392 Hippo signaling pathway - multiple species” value (KTC1101 0.2μM, GSEA KEGG)?
**A.** 0.3945

**Q.** And the “enrichmentScore, mmu04514 Cell adhesion molecules” value (KTC1101 0.2μM, GSEA KEGG)?
**A.** 0.3446

**Q.** What about the “enrichmentScore, mmu04520 Adherens junction” value (KTC1101 0.2μM, GSEA KEGG) of the same molecule?
**A.** 0.258

**Q.** What about the “enrichmentScore, mmu04530 Tight junction” value (KTC1101 0.2μM, GSEA KEGG) of the same molecule?
**A.** -0.1527

**Q.** What about the “enrichmentScore, mmu04550 Signaling pathways regulating pluripotency of stem cells” value (KTC1101 0.2μM, GSEA KEGG) of the same molecule?
**A.** 0.3252

**Q.** What about the “enrichmentScore, mmu04611 Platelet activation” value (KTC1101 0.2μM, GSEA KEGG) of the same molecule?
**A.** 0.2724

**Q.** And the “enrichmentScore, mmu04612 Antigen processing and presentation” value (KTC1101 0.2μM, GSEA KEGG)?
**A.** 0.2974

**Q.** What about the “enrichmentScore, mmu04622 RIG-I-like receptor signaling pathway” value (KTC1101 0.2μM, GSEA KEGG) of the same molecule?
**A.** 0.2627

**Q.** What about the “enrichmentScore, mmu04623 Cytosolic DNA-sensing pathway” value (KTC1101 0.2μM, GSEA KEGG) of the same molecule?
**A.** 0.3684

**Q.** What about the “enrichmentScore, mmu04650 Natural killer cell mediated cytotoxicity” value (KTC1101 0.2μM, GSEA KEGG) of the same molecule?
**A.** 0.2671

**Q.** And the “enrichmentScore, mmu04658 Th1 and Th2 cell differentiation” value (KTC1101 0.2μM, GSEA KEGG)?
**A.** 0.359

**Q.** And the “enrichmentScore, mmu04660 T cell receptor signaling pathway” value (KTC1101 0.2μM, GSEA KEGG)?
**A.** 0.174

**Q.** And the “enrichmentScore, mmu04662 B cell receptor signaling pathway” value (KTC1101 0.2μM, GSEA KEGG)?
**A.** 0.2749

**Q.** And the “enrichmentScore, mmu04666 Fc gamma R-mediated phagocytosis” value (KTC1101 0.2μM, GSEA KEGG)?
**A.** -0.2944

**Q.** What about the “enrichmentScore, mmu04670 Leukocyte transendothelial migration” value (KTC1101 0.2μM, GSEA KEGG) of the same molecule?
**A.** 0.2117

**Q.** And the “enrichmentScore, mmu04714 Thermogenesis” value (KTC1101 0.2μM, GSEA KEGG)?
**A.** -0.2154

**Q.** And the “enrichmentScore, mmu04720 Long-term potentiation” value (KTC1101 0.2μM, GSEA KEGG)?
**A.** 0.2329

**Q.** What about the “enrichmentScore, mmu04723 Retrograde endocannabinoid signaling” value (KTC1101 0.2μM, GSEA KEGG) of the same molecule?
**A.** 0.2816

**Q.** What about the “enrichmentScore, mmu04726 Serotonergic synapse” value (KTC1101 0.2μM, GSEA KEGG) of the same molecule?
**A.** 0.3744

**Q.** What about the “enrichmentScore, mmu04727 GABAergic synapse” value (KTC1101 0.2μM, GSEA KEGG) of the same molecule?
**A.** 0.3552

**Q.** What about the “enrichmentScore, mmu04728 Dopaminergic synapse” value (KTC1101 0.2μM, GSEA KEGG) of the same molecule?
**A.** 0.2754

**Q.** And the “enrichmentScore, mmu04730 Long-term depression” value (KTC1101 0.2μM, GSEA KEGG)?
**A.** 0.3483

**Q.** What about the “enrichmentScore, mmu04750 Inflammatory mediator regulation of TRP channels” value (KTC1101 0.2μM, GSEA KEGG) of the same molecule?
**A.** 0.2734

**Q.** What about the “enrichmentScore, mmu04910 Insulin signaling pathway” value (KTC1101 0.2μM, GSEA KEGG) of the same molecule?
**A.** 0.2919

**Q.** What about the “enrichmentScore, mmu04912 GnRH signaling pathway” value (KTC1101 0.2μM, GSEA KEGG) of the same molecule?
**A.** 0.3311

**Q.** What about the “enrichmentScore, mmu04915 Estrogen signaling pathway” value (KTC1101 0.2μM, GSEA KEGG) of the same molecule?
**A.** 0.2687

**Q.** And the “enrichmentScore, mmu04916 Melanogenesis” value (KTC1101 0.2μM, GSEA KEGG)?
**A.** 0.2873

**Q.** What about the “enrichmentScore, mmu04917 Prolactin signaling pathway” value (KTC1101 0.2μM, GSEA KEGG) of the same molecule?
**A.** 0.2949

**Q.** And the “enrichmentScore, mmu04920 Adipocytokine signaling pathway” value (KTC1101 0.2μM, GSEA KEGG)?
**A.** 0.3361

**Q.** And the “enrichmentScore, mmu04929 GnRH secretion” value (KTC1101 0.2μM, GSEA KEGG)?
**A.** -0.3021

**Q.** What about the “enrichmentScore, mmu04930 Type II diabetes mellitus” value (KTC1101 0.2μM, GSEA KEGG) of the same molecule?
**A.** 0.385

**Q.** What about the “enrichmentScore, mmu04932 Non-alcoholic fatty liver disease” value (KTC1101 0.2μM, GSEA KEGG) of the same molecule?
**A.** -0.2292

**Q.** And the “enrichmentScore, mmu04934 Cushing syndrome” value (KTC1101 0.2μM, GSEA KEGG)?
**A.** 0.2719

**Q.** And the “enrichmentScore, mmu04936 Alcoholic liver disease” value (KTC1101 0.2μM, GSEA KEGG)?
**A.** 0.2103

**Q.** And the “enrichmentScore, mmu04960 Aldosterone-regulated sodium reabsorption” value (KTC1101 0.2μM, GSEA KEGG)?
**A.** 0.4243

**Q.** And the “enrichmentScore, mmu04961 Endocrine and other factor-regulated calcium reabsorption” value (KTC1101 0.2μM, GSEA KEGG)?
**A.** 0.3281

**Q.** What about the “enrichmentScore, mmu04962 Vasopressin-regulated water reabsorption” value (KTC1101 0.2μM, GSEA KEGG) of the same molecule?
**A.** 0.3811

**Q.** What about the “enrichmentScore, mmu04970 Salivary secretion” value (KTC1101 0.2μM, GSEA KEGG) of the same molecule?
**A.** 0.3709

**Q.** And the “enrichmentScore, mmu04972 Pancreatic secretion” value (KTC1101 0.2μM, GSEA KEGG)?
**A.** 0.3054

**Q.** What about the “enrichmentScore, mmu05017 Spinocerebellar ataxia” value (KTC1101 0.2μM, GSEA KEGG) of the same molecule?
**A.** -0.2487

**Q.** And the “enrichmentScore, mmu05031 Amphetamine addiction” value (KTC1101 0.2μM, GSEA KEGG)?
**A.** 0.3398

**Q.** And the “enrichmentScore, mmu05034 Alcoholism” value (KTC1101 0.2μM, GSEA KEGG)?
**A.** 0.2877

**Q.** What about the “enrichmentScore, mmu05100 Bacterial invasion of epithelial cells” value (KTC1101 0.2μM, GSEA KEGG) of the same molecule?
**A.** 0.1912

**Q.** And the “enrichmentScore, mmu05132 Salmonella infection” value (KTC1101 0.2μM, GSEA KEGG)?
**A.** -0.223

**Q.** And the “enrichmentScore, mmu05133 Pertussis” value (KTC1101 0.2μM, GSEA KEGG)?
**A.** 0.2038

**Q.** And the “enrichmentScore, mmu05134 Legionellosis” value (KTC1101 0.2μM, GSEA KEGG)?
**A.** 0.3271

**Q.** And the “enrichmentScore, mmu05135 Yersinia infection” value (KTC1101 0.2μM, GSEA KEGG)?
**A.** 0.1452

**Q.** What about the “enrichmentScore, mmu05145 Toxoplasmosis” value (KTC1101 0.2μM, GSEA KEGG) of the same molecule?
**A.** 0.3104

**Q.** And the “enrichmentScore, mmu05160 Hepatitis C” value (KTC1101 0.2μM, GSEA KEGG)?
**A.** -0.1925

**Q.** What about the “enrichmentScore, mmu05162 Measles” value (KTC1101 0.2μM, GSEA KEGG) of the same molecule?
**A.** 0.3001

**Q.** And the “enrichmentScore, mmu05165 Human papillomavirus infection” value (KTC1101 0.2μM, GSEA KEGG)?
**A.** 0.2105

**Q.** And the “enrichmentScore, mmu05170 Human immunodeficiency virus 1 infection” value (KTC1101 0.2μM, GSEA KEGG)?
**A.** 0.2282

**Q.** What about the “enrichmentScore, mmu05200 Pathways in cancer” value (KTC1101 0.2μM, GSEA KEGG) of the same molecule?
**A.** 0.2563

**Q.** What about the “enrichmentScore, mmu05203 Viral carcinogenesis” value (KTC1101 0.2μM, GSEA KEGG) of the same molecule?
**A.** 0.2271

**Q.** What about the “enrichmentScore, mmu05204 Chemical carcinogenesis - DNA adducts” value (KTC1101 0.2μM, GSEA KEGG) of the same molecule?
**A.** -0.3876

**Q.** And the “enrichmentScore, mmu05206 MicroRNAs in cancer” value (KTC1101 0.2μM, GSEA KEGG)?
**A.** 0.2735

**Q.** What about the “enrichmentScore, mmu05207 Chemical carcinogenesis - receptor activation” value (KTC1101 0.2μM, GSEA KEGG) of the same molecule?
**A.** 0.2555

**Q.** And the “enrichmentScore, mmu05210 Colorectal cancer” value (KTC1101 0.2μM, GSEA KEGG)?
**A.** 0.2135

**Q.** And the “enrichmentScore, mmu05211 Renal cell carcinoma” value (KTC1101 0.2μM, GSEA KEGG)?
**A.** -0.2497

**Q.** What about the “enrichmentScore, mmu05212 Pancreatic cancer” value (KTC1101 0.2μM, GSEA KEGG) of the same molecule?
**A.** -0.2279

**Q.** And the “enrichmentScore, mmu05213 Endometrial cancer” value (KTC1101 0.2μM, GSEA KEGG)?
**A.** -0.2692

**Q.** What about the “enrichmentScore, mmu05214 Glioma” value (KTC1101 0.2μM, GSEA KEGG) of the same molecule?
**A.** 0.2912

**Q.** What about the “enrichmentScore, mmu05216 Thyroid cancer” value (KTC1101 0.2μM, GSEA KEGG) of the same molecule?
**A.** 0.217

**Q.** And the “enrichmentScore, mmu05218 Melanoma” value (KTC1101 0.2μM, GSEA KEGG)?
**A.** 0.3678

**Q.** What about the “enrichmentScore, mmu05219 Bladder cancer” value (KTC1101 0.2μM, GSEA KEGG) of the same molecule?
**A.** 0.2813

**Q.** What about the “enrichmentScore, mmu05220 Chronic myeloid leukemia” value (KTC1101 0.2μM, GSEA KEGG) of the same molecule?
**A.** 0.2762

**Q.** And the “enrichmentScore, mmu05223 Non-small cell lung cancer” value (KTC1101 0.2μM, GSEA KEGG)?
**A.** -0.2111

**Q.** What about the “enrichmentScore, mmu05231 Choline metabolism in cancer” value (KTC1101 0.2μM, GSEA KEGG) of the same molecule?
**A.** 0.3293

**Q.** What about the “enrichmentScore, mmu05235 PD-L1 expression and PD-1 checkpoint pathway in cancer” value (KTC1101 0.2μM, GSEA KEGG) of the same molecule?
**A.** 0.291

**Q.** And the “enrichmentScore, mmu05412 Arrhythmogenic right ventricular cardiomyopathy” value (KTC1101 0.2μM, GSEA KEGG)?
**A.** 0.3444

**Q.** And the “enrichmentScore, mmu05416 Viral myocarditis” value (KTC1101 0.2μM, GSEA KEGG)?
**A.** 0.3314

**Q.** And the “enrichmentScore, mmu05417 Lipid and atherosclerosis” value (KTC1101 0.2μM, GSEA KEGG)?
**A.** 0.3016

**Q.** And the “NES: Coronavirus disease - COVID-19” value ([…], KTC 0.2μM)?
**A.** 2.023

**Q.** And the “enrichmentScore: Coronavirus disease - COVID-19” value ([…], KTC 0.2μM)?
**A.** 0.5276
